Source: patent US9101628B2, “Methods and composition of treating a flaviviridae family viral infection” (The Board of Trustees of the Leland Stanford Junior …, priority 2007, dated 2015)

System: HCV RNA replication
Experiment: RNA replication inhibition assay (luciferase reporter-linked HCV genome)
Conditions: Hepatitis C virus, percentage of untreated control population; for activity at 5 µM: read-out: Residual Luciferase activity, 5 micromolar; for activity at 10 µM: read-out: Residual Luciferase activity, 10 micromolar

SMILES | activity at 5 µM [%] | activity at 10 µM [%]
CCCN(CCC)Cc1nc2ccccc2n1Cc1ccc(Cl)cc1 [Compound 5] | < 80 | < 55
COCC1CCN(Cc2nc3ccccc3n2Cc2ccc(Cl)cc2)C1 (stereo not shown) [Compound 6] | > 80 | < 80
COC(=O)C1CCN(Cc2nc3ccccc3n2Cc2ccc(Cl)cc2)C1 (stereo not shown) [Compound 7] | > 80 | > 80
COC(=O)C1CCCN1Cc1nc2ccccc2n1Cc1ccc(Cl)cc1 (stereo not shown) [Compound 8] | < 55 | < 55
COCC1CCCN1Cc1nc2ccccc2n1Cc1ccc(Cl)cc1 (stereo not shown) [Compound 10] | < 80 | < 80
O=C1CCCN1Cc1nc2ccccc2n1Cc1ccc(Cl)cc1 [Compound 12] | < 80 | < 80
COC(=O)c1ccc(Cn2c(CN3CCCC3)nc3ccccc32)cc1 [Compound 14] | < 80 | < 80
O=C(O)c1ccc(Cn2c(CN3CCCC3)nc3ccccc32)cc1 [Compound 15] | > 80 | > 80
COC(=O)c1cccc(Cn2c(CN3CCCC3)nc3ccccc32)c1 [Compound 16] | > 80 | > 80
O=C(O)c1cccc(Cn2c(CN3CCCC3)nc3ccccc32)c1 [Compound 17] | > 80 | > 80
Clc1cccc(Cn2c(CN3CCCC3)nc3ccccc32)c1 [Compound 18] | < 80 | < 80
Clc1ccccc1Cn1c(CN2CCCC2)nc2ccccc21 [Compound 19] | > 80 | > 80
c1ccc2c(c1)nc(CN1CCCC1)n2Cc1ccncc1 [Compound 20] | > 80 | > 80
c1cncc(Cn2c(CN3CCCC3)nc3ccccc32)c1 [Compound 21] | > 80 | > 80
c1ccc2c(c1)nc(CN1CCCC1)n2CC1CCCCC1 [Compound 22] | > 80 | < 80
O[C@H]1CCN(Cc2nc3ccccc3n2Cc2ccc(Cl)cc2)C1 [Compound 23] | > 80 | > 80
O[C@@H]1CCN(Cc2nc3ccccc3n2Cc2ccc(Cl)cc2)C1 [Compound 24] | > 80 | > 80
OC[C@@H]1CCCN1Cc1nc2ccccc2n1Cc1ccc(Cl)cc1 [Compound 25] | < 80 | < 55
CC1CCC(C)N1Cc1nc2ccccc2n1Cc1ccc(Cl)cc1 (stereo not shown) [Compound 26] | > 80 | > 80
Clc1ccc(Cn2c(CN3CCCCCC3)nc3ccccc32)cc1 [Compound 27] | < 80 | < 55
Cc1ccc2c(c1)nc(CN1CCCC1)n2Cc1ccc(Cl)cc1 [Compound 28] | > 80 | < 55
COCC1CCCN1Cc1nc2cc(C)ccc2n1Cc1ccc(Cl)cc1 (stereo not shown) [Compound 29] | > 80 | < 55
COCC1CCCN1Cc1nc2c(C)c(C)ccc2n1Cc1ccc(Cl)cc1 (stereo not shown) [Compound 31] | < 80 | < 55
Clc1ccc(Cn2c(CN3CCCC3)nc3ccccc32)s1 [Compound 32] | < 80 | < 80
Cc1ccc2c(nc(CN3CCCC3=O)n2Cc2ccc(Cl)cc2)c1C [Compound 33] | > 80 | > 80
CC(=O)N1CCCC(Cn2c(CN3CCCC3)nc3ccccc32)C1 (stereo not shown) [Compound 34] | > 80 | > 80
CS(=O)(=O)N1CCCC(Cn2c(CN3CCCC3)nc3ccccc32)C1 (stereo not shown) [Compound 35] | > 80 | > 80
c1ccc2c(c1)nc(CN1CCCC1)n2CC1CCNCC1 [Compound 36] | < 80 | > 80
CC(=O)N1CCC(Cn2c(CN3CCCC3)nc3ccccc32)CC1 [Compound 37] | < 80 | > 80
